In a melting point compilation (Tetko et al.; mined from patent text by program, amines drawn as free bases though some values may be those of a salt):

| melting point [°C] | SMILES |
| --- | --- |
| 70 to 73 | COC(=O)c1ccc(C(=O)c2ccccc2)o1 |
| > 300 | O=C(Nc1cccc2c1C(=O)c1c-2n[nH]c1-c1ccc(C(=O)N2CCC[C@H]2CNc2ccccc2)s1)NN1CCOCC1 |
| > 250 | CNCC1Cc2cc(-c3ccc(F)cc3)cc(F)c2O1 (stereo not given) |
| 131 to 134 | O=C1c2cccc([N+](=O)[O-])c2OC12CC2 |
| 189 to 191 | COCCc1nc2c(N)nc3ccccc3c2n1CC1(O)CCCCC1 |
| > 300 | O=c1[nH]c2cc(Cl)ccc2c(O)c1-c1ccccc1Cl |
| 164 | Cc1ncn(Nc2cccc(Cl)c2)c1-c1cccc(Br)c1 |
| 188 to 189 | Cc1ccc2c(n1)sc1c(Cl)nnnc12 |
| 65 to 66 | COc1ccc(N(C)C(C)=O)cc1C |
| 250 to 252 | CCOC(=O)c1cn(CC)c2nc(OC)c(N)cc2c1=O |
| 146 to 149 | CCN1C(=O)C(C)(C)C(=O)N(C)c2cc(OCCCN3C(=O)Cc4ccccc43)ccc21 |
| 220 to 221 | CC(C)(C)C(NC(=O)COc1ccccc1)Nc1c(Nc2cccnc2Cl)c(=O)c1=O (stereo not given) |
| 198 to 199 | Cc1cc(C)cc(Sc2c(CO)nc(C)n2C)c1 |
| 220 | COc1ccc(-c2cc(=O)cc(N3CCOCC3)o2)cc1 |
| 166 to 174 | CC(=O)c1cccc(OC2SCC(O)C(O)C2O)c1 (stereo not given) |
| 149 to 151 | O=C1c2ccccc2CN1C1CCN(c2ccc(C(OCc3ccccn3)c3ccccc3)cc2)CC1 (stereo not given) |
| 112 to 114 | Cc1ccc(S(=O)(=O)n2cc(I)nc2C)cc1 |
| 143 to 144 | CCC(C(=O)Nc1ccc2cc[nH]c2c1)c1ccccc1 (stereo not given) |
| 120 to 121 | Clc1ccc(-c2nc(Cl)cc(Cl)n2)cc1 |
| 191 to 193 | CCCCCc1c(-c2ccc(OC(F)F)c(OC3CC3)c2)[nH]c2cn[nH]c(=O)c12 |
| 70 to 71 | CC1(C(=O)NCc2cccs2)CC1 |
| 64 to 65 | CCOC(=O)CCc1ccc(OCc2ccc(OCc3nc(-c4ccccc4)oc3C)cc2)cc1OCC |
| > 250 | Cc1sc(N)nc1-c1ccc2c(c1)CC(=O)N2 |
| 34 to 37 | CCCCCCCCCCCCCCCCCCSC(C)(C)C(=O)CC(=O)OCC |
| 184 to 186 | CC(=O)NC[C@H]1CN(c2ccc(N3CCC(O)(CN4CCOCC4)CC3)c(F)c2)C(=O)O1 |

| melting point [°C] | SMILES |
| --- | --- |
| 117 to 118 | Cc1cc(-n2cncn2)c2c(Cl)ccc(C)c2n1 |
| 170 to 172 | O=C(O)CCC(Cc1ccccc1Cl)(C(=O)C=Cc1cccc(Cl)c1)c1ccccc1 (stereo not given) |
| 128 | CCOC(=O)c1cnc2c(C)cc(-c3ccc(C(F)(F)F)cc3)cn12 |
| 101 to 102 | O=C(OCc1ccc(OCc2ccc(Cl)cc2)cc1)c1cccnc1 |
| 125 | COc1nc(OC)nc(N(C(=O)Oc2ccccc2)C(=O)Oc2ccccc2)n1 |
| 216 to 217 | Cn1ncc2c1-c1c(Oc3ccc(OCc4ccc(Cl)cc4)cc3)sc(C(N)=O)c1CC2 |
| 128 to 130 | CCCNc1cccc(-c2ccnc3c(C(=O)c4cccs4)cnn23)c1 |
| 107 | COC1=C(OC)C(=O)C(CCCCCCCCCC(=O)N[C@@H](CCCCN)C(=O)O)=C(C)C1=O |
| 154 to 156 | CC1(C)CCC2=C(O1)c1ccccc1C(=O)C2=O |
| 68 to 69 | COC1OC(COCc2ccccc2)C(OCc2ccccc2)C(OCc2ccccc2)C1OCc1ccccc1 (stereo not given) |
| 247 to 248 | Cc1c(-c2nnn[nH]2)oc2c(c1=O)CSc1ccccc1-2 |
| 128 to 130 | O=C(Cc1ccncc1)[N+]1([O-])CCC(=C2c3ccc(Cl)cc3CCc3cccnc32)CC1 (stereo not given) |
| 210 to 211 | CCOC(=O)Nc1cn2nc(OCc3cc(OC)ccc3OC)ccc2n1 |
| 106 to 107 | Cc1oc(-c2ccccc2)nc1COc1ccc(N)cn1 |
| 126 to 127 | CN(C)C=C1CSc2ccc(Cl)cc2C1=O |
| 282 to 284 | N#Cc1c(N)ncc2c1-c1ccccc1C(c1ccc(Cl)cc1Cl)C2 (stereo not given) |
| 105 to 106 | CCOC(=O)c1cnn2c1c(Cl)nc1ccccc12 |
| 214 to 216 | O=C(O)C(Cl)C1c2c(Cl)c(Cl)c(Cl)c(Cl)c2C(Cl)(Cl)C1(Cl)Cl (stereo not given) |
| 164 | Nc1nc(N)c(CCCC(CO)c2ccc(C(=O)N[C@@H](CCC(=O)O)C(=O)O)cc2)c(O)n1 (stereo not given in full) |
| 82 to 84 | O=C(O)c1ccccc1CCCCc1ccccc1 |
| 76 to 78 | CCCCCS(=O)(=O)NC(=O)C(Cc1ccc(OCCOC)cc1Oc1ncc(C(F)(F)F)cc1Cl)OC (stereo not given) |
| 254 to 259 | O=c1[nH]c2ccccc2c2c(C(O)CC3CCCCC3)n(-c3ccccc3)nc12 (stereo not given) |
| 154 to 156 | CC(C)c1ccc2c(c1)c(Sc1nc3cc(Cl)ccc3s1)c(CC(C)(C)C(=O)O)n2Cc1ccc(Cl)cc1 |
| 146 to 147 | CC(C)c1nc(CCOC(=O)N[C@H](C(=O)N[C@@H](Cc2ccccc2)C[C@H](O)[C@H](Cc2ccccc2)NC(=O)OCc2cncs2)C(C)C)cs1 |
| 98 to 99 | CC(C)(CCCC(C(O)C(C)(C)C)n1cncn1)c1ccccc1 (stereo not given) |

The next lines start with the compound.

| SMILES | melting point [°C] |
| --- | --- |
| COC(=O)c1cccc(-c2nc(C(=O)c3ccc(N)c(C(=O)OC)c3)n3ccccc23)c1 | 203 |
| COc1cc(C2=C(c3c(-c4ccccc4)[nH]c4ccccc34)C(=O)NC2=O)cc(OC)c1OC | 304 |
| Cc1ccc(CCc2n[nH]c3c2c(=O)n(-c2ccccc2)c2ncccc32)cc1 | 264 to 265 |
| CCC1(Cl)C(=O)c2c(cc(OCC(=O)O)c(Cl)c2Cl)C1C (stereo not given) | 208 to 210 |
| CCCCCCCc1ccc(C(=O)Cc2ccccc2C(=O)O)cc1 | 128 to 131 |
| CCc1cccc(N)c1C(=O)O | 99 to 104 |
| CC(C)N1CCC(n2cc(C3=C(c4cn(C)c5ccccc45)C(=O)NC3=O)c3ccccc32)CC1 | > 250 |
| CC(=O)OC1CSC(Oc2cccc(C#N)c2)C(OC(C)=O)C1OC(C)=O (stereo not given) | 148 to 151 |
| NC(=O)[C@@H]1[C@H](Nc2c(Br)cnc3[nH]c(-c4ccoc4)nc23)[C@H]2C=C[C@@H]1C2 | 231 to 232 |
| O=C(CCCCl)Nc1n[nH]c2cc(Cl)ccc12 | 220 |
| COc1cccc(C=C2NC(=O)NC2=O)c1OCCc1ccccc1 | 199 to 201 |
| CCP(=O)(O)CC(=O)CN | 189 to 192 |
| CCOC(=O)c1ccc(C(C)=Cc2ccc3ccccc3c2)cc1 | 96 |
| CN1CC(=O)c2c(c3ccccc3n2C)S1(=O)=O | 180 |
| O=C1CCc2ccc(Oc3cccc(CN4CCN(c5cccc(Cl)c5Cl)CC4)c3)cc2N1 | 182 to 183 |
| COc1cccc(OC)c1C(=O)P(=O)(CC(C)C)C(=O)c1c(C)cc(C)cc1C (stereo not given) | 105 to 106 |
| CCC(=O)c1ccc(SC)cn1 | 52 to 53 |
| CC(C)n1nc(-c2c(-c3ccccc3)nn3ccc(OCc4ccccn4)cc23)ccc1=O | 150 to 151 |
| COc1cccc(CC(=O)O)c1OCCCc1cn(-c2ccc(C(F)(F)F)cn2)nc1C(C)C | 142 to 143 |
| CCS(=O)(=O)N1CCN(c2ccc(NC(=O)c3cc(=O)c4cc(F)cc(N5CCN(C)CC5)c4o3)cc2)CC1 | 233 to 234 |
| O=C1c2nc(O)ccc2C(=O)c2c(-c3ccccc3NC(=O)C(F)(F)F)ccnc21 | > 260 |
| CCCC(CO)(CCC)N(OC(C)c1ccccc1)C(C)(C)CO (stereo not given) | 88 to 92 |
| COc1ccc2c(c1)C(CCC(C)C)(C(F)(F)F)OCC(=O)N2 (stereo not given) | 123 to 130 |
| Cc1ccc(Cc2cnc(NCCCNc3ccc(Cl)cn3)[nH]c2=O)cn1 | 173 to 175 |
| Cc1oc(-c2ccccc2)nc1COc1ccc(COc2ccc(O)cc2CC#N)cc1 | 185 to 186 |

| SMILES | melting point [°C] |
| --- | --- |
| Nc1cc(-c2ccc(CO)o2)nn1Cc1ccccc1 | 163 |
| O=c1ccccn1CCCn1ccccc1=O | 132 |
| CN(C)CCOc1ccc2[nH]c(C(=O)N3CC(CCl)c4c3cc(N)c3ccccc43)cc2c1 (stereo not given) | > 250 |
| CN(C)C=Cc1cc(-n2cncn2)ncc1[N+](=O)[O-] | 225 to 228 |
| COc1cccc(OC)c1C(=O)P(=O)(C(=O)c1c(OC)cccc1OC)c1ccccc1 | 155 |
| O=C1NCCN1CCN1CCC(c2cn(-c3ccc(F)cc3)c3ccc(O)cc23)CC1 | 220 |
| [N-]=[N+]=NCCOc1ccc(C(=C(c2ccc(F)cc2)C(F)(F)F)c2ccccc2)cc1 | 100 to 110 |
| Cc1nc2c([nH]1)C(=O)N1CCN=C1N2Cc1ccc(Cl)cc1 | 312 to 314 |
| BrCc1nc2cc3ccccc3cc2nc1CBr | 190 to 191 |
| CC(C)(C)OC(=O)Nc1sc(-c2cncc(F)c2)nc1I | 148 to 149 |
| O=C(c1c[nH]c2cc(O)ccc12)C1CSC(c2cccnc2)N1 (stereo not given) | 203 to 205 |
| Nc1ccccc1-c1cnoc1 | 48 to 51 |
| Cn1nc(-c2ccccc2S(=O)(=O)Cl)oc1=O | 122 to 125 |
| COc1ccc2c(c1)CCN1C[C@H]3CCCN[C@H]3C[C@@H]21 | 125 to 127 |
| CS(=O)(=O)c1ccc(-c2sc(-c3ccccc3Cl)nc2-c2cccc(F)c2)cc1 | 134 to 135 |
| COc1ccc(-c2nc(C(F)F)oc2-c2ccc(OCCNC(N)=O)cc2)cc1 | 146 to 149 |
| Clc1cccc(-c2cn3c(n2)sc2ccccc23)c1 | 173 to 175 |
| CCOC(=O)c1nc(C)n2c1CN=C(c1ccccc1Cl)c1cc(Cl)ccc1-2 | 214 to 215 |
| Nc1ccc2c(c1)OC1(CC1)C2=O | 188 to 189 |
| O=C(O)COc1cccc2c(CNS(=O)(=O)Cc3ccccc3)coc12 | 191 to 192 |
| COc1cccc(C2(C#N)CCN(C(=O)CN3CCN(c4cnccn4)CC3)CC2)c1 | 108 |
| CC(=O)OC1CSC(Oc2ccc(-c3cccnc3Cl)nc2)C(OC(C)=O)C1OC(C)=O (stereo not given) | 180 |
| O=C1N[C@H](Cc2ccc(C(F)(F)F)cc2)[C@H](c2cccc(F)c2)O1 (racemic) | 143 to 144 |
| OC(CN1CCNC1=S)c1ccc(Cl)cc1 (stereo not given) | 153 |
| O=C(COc1ccc2c(-c3ccccc3F)noc2c1Br)NO | 165 to 167 |
